Target: T1, human ENT1 (Homo sapiens, UniProt Q99808)
T1 sequence (Q99808 1-456): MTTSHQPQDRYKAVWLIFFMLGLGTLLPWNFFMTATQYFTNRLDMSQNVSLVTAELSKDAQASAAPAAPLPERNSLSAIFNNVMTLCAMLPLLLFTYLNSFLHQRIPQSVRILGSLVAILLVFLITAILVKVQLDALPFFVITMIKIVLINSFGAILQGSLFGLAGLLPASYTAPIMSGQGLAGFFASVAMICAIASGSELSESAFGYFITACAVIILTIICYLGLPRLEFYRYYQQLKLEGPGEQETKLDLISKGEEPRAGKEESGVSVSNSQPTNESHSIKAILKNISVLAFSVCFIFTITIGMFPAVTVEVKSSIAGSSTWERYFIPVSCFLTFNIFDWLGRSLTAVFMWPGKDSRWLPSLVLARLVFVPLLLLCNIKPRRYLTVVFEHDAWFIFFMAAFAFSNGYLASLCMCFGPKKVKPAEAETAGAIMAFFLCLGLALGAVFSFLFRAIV
Assay: ENT1 binding assay (competition with Sahenta-DY647 on JAR cells)
Parameters: JAR cells expressing ENT1 were bought from ATCC® (HTB-144TM); host or cells: JAR cells (human choriocarcinoma line; whole cells)
Conditions: competition with Sahenta-DY647 100 nM, 4° C.
Procedure, shortened: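 Competition binding on intact JAR cells (50000 per well) in HBSS with 10 mM Hepes and 0.1% BSA. Cells pre-incubated with compound 30 min at 4 °C, then Sahenta-DY647 added at its IC90 (100 nM) for another 30 min at 4 °C; after washing, fluorescence read at Ex 630/Em 670 nm.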

Structure (SMILES) | IC50
COc1cc2cc(c1OC)OCCCC(OC(=O)C1CCC(C(F)(F)F)CC1)CCN1CCCN(CCCOC2=O)CC1 (stereo not drawn) [Compound 106, 74,75-dimethoxy-6-oxo-5,8-dioxa-1(1,4)-diazepana-7(1,3)-benzenacyclotetradecaphane-12-yl 4-(trifluoromethyl)cyclohexane-1-carboxylate] | 1 to 20 nM
COc1cc2cc(c1OC)OCCCC(n1cc(-c3ccccc3)nn1)CCN1CCCN(CCCOC2=O)CC1 (stereo not drawn) [Compound 108, 74,75-dimethoxy-12-(4-phenyl-1 H-1,2,3-triazol-1-yl)-5,8-dioxa-1(1,4)-diazepana-7(1,3)-benzenacyclotetradecaphan-6-one] | > 500 nM
COc1cc2cc(c1OC)OCCCC(O/N=C/c1ccccc1)CCN1CCCN(CCCNC2=O)CC1 (stereo not drawn) [Compound 114, (E)-benzaldehyde O-(74,75-dimethoxy-6-oxo-8-oxa-5-aza-1(1,4)-diazepana-7(1,3)-benzenacyclotetradecaphane-12-yl) oxime] | > 500 nM
COc1cc2cc(c1OC)OCCC[C@@H](O/N=C/c1ccccc1)CCN1CCCN(CCCNC2=O)CC1 [Compound 115, (E)-benzaldehyde O-((12R)-74,75-dimethoxy-6-oxo-8-oxa-5-aza-1(1,4)-diazepana-7(1,3)-benzenacyclotetradecaphane-12-yl) oxime] | > 500 nM
COc1cc2cc(c1OC)OCCCC(O)CCN1CCCN(CCCNC2=O)CC1 (stereo not drawn) [Compound 117, 12-hydroxy-74,75-dimethoxy-8-oxa-5-aza-1(1,4) -diazepana-7(1,3)-benzenacyclotetradecaphan-6-one] | > 500 nM
COc1cc(C(=O)O[C@H]2CCCOc3cc(cc(OC)c3OC)C(=O)OCCCN3CCN(CC2)CC(F)(F)C3)cc(OC)c1OC [Compound 119, (12S)-16,16-difluoro-74,75-dimethoxy-6-oxo-5,8-dioxa-1(1,4)-diazepana-7(1,3)-benzenacyclotetradecaphane-12-yl 3,4,5-trimethoxybenzoate] | 1 to 20 nM
COc1cc(C(=O)O[C@H]2CCCOc3cc(cc(Cl)c3C(N)=O)C(=O)NCCCN3CCCN(CC2)CC3)cc(OC)c1OC [Compound 121, (12S)-74-carbamoyl-75-chloro-6-oxo-8-oxa-5-aza-1(1,4)-diazepana-7(1,3)-benzenacyclotetradecaphane-12-yl 3,4,5-trimethoxybenzoate] | 20 to 500 nM

Second part, the compound after the results:

IC50 | Structure (SMILES)
1 to 20 nM | COc1cc2cc(c1OC)OCCCC(n1nnc(-c3ccccc3)n1)CCN1CCCN(CCCOC2=O)CC1 (stereo not drawn) [Compound 107, 74,75-dimethoxy-12-(5-phenyl-2 H-tetrazol-2-yl)-5,8-dioxa-1(1,4)-diazepana-7(1,3)-benzenacyclotetradecaphan-6-one]
20 to 500 nM | COc1cc2cc(c1OC)OCCCC(OC(=O)CCN1C(=O)CCC1=O)CCN1CCCN(CCCOC2=O)CC1 (stereo not drawn) [Compound 110, 74,75-dimethoxy-6-oxo-5,8-dioxa-1(1,4)-diazepana-7(1,3)-benzenacyclotetradecaphane-12-yl 3-(2,5-dioxopyrrolidin-1-yl)propanoate]
1 to 20 nM | COc1cc2cc(c1OC)OCCCC(OC(=O)C1CCCC(OC)C1)CCN1CCCN(CCCOC2=O)CC1 (stereo not drawn) [Compound 111, 74,75-dimethoxy-6-oxo-5,8-dioxa-1(1,4)-diazepana-7(1,3)-benzenacyclotetradecaphane-12-yl 3-methoxycyclohexane-1-carboxylate]
1 to 20 nM | COc1cc(C(=O)OC2CCCOc3cc(cc(C(N)=O)c3Cl)C(=O)OCCCN3CCCN(CC2)CC3)cc(OC)c1OC (stereo not drawn) [Compound 120, 75-carbamoyl-74-chloro-6-oxo-5,8-dioxa-1(1,4)-diazepana-7(1,3)-benzenacyclotetradecaphane-12-yl 3,4,5-trimethoxybenzoate]
1 to 20 nM | COc1cc(C(=O)OC2CCCOc3cc(cc(Cl)c3Br)C(=O)NCCCN3CCCN(CC2)CC3)cc(OC)c1OC (stereo not drawn) [Compound 122, 74-bromo-75-chloro-6-oxo-8-oxa-5-aza-1(1,4)-diazepana-7(1,3)-benzenacyclotetradecaphane-12-yl 3,4,5-trimethoxybenzoate]
